Test results taken from article PMC4268243 (Nuclear medicine and biology, 2014).

What was measured:
A549 tumor xenograft = test: Biodistribution in A549 tumor-bearing SCID mice; type: in vivo; conditions: listed as (R)-[^18F] FAMP 1
[1] = test system: SCID mice xenograft tumor models; type: in vivo; conditions: in most cases, over tumors and time points
SKOV3 tumor xenograft = test: Biodistribution in SKOV3 tumor-bearing SCID mice; type: in vivo; conditions: listed as (R)-[^18F] FAMP 1
[2] = test system: human A549, DU145, U87, MDA MB468 and SKOV3 tumor cells; test: Amino acid uptake and inhibition, summary over the five tumor cell lines; type: cell-based

Compound: CC(N)(C[18F])C(=O)O [(R)-[^18F]1] [2-amino-3-[^18F]fluoro-2-methylpropanoic acid]
- uptake in blood (A549 tumor xenograft; 15 min post injection): 2.9±0.4 %ID/g
- uptake in bone (A549 tumor xenograft; 15 min post injection): 2.6±0.6 %ID/g
- uptake in brain (A549 tumor xenograft; 15 min post injection): 0.8±0.2 %ID/g
- uptake in heart (A549 tumor xenograft; 15 min post injection): 4.4±01.0 %ID/g
- uptake in kidney (A549 tumor xenograft; 15 min post injection): 18±3.5 %ID/g
- uptake in liver (A549 tumor xenograft; 15 min post injection): 4.8±0.5 %ID/g
- uptake in lung (A549 tumor xenograft; 15 min post injection): 5.0±0.9 %ID/g
- uptake in muscle (A549 tumor xenograft; 15 min post injection): 2.0±0.4 %ID/g
- uptake in pancreas (A549 tumor xenograft; 15 min post injection): 54±14 %ID/g
- uptake in spleen (A549 tumor xenograft; 15 min post injection): 9.5±3.9 %ID/g
- uptake in tumor (A549 tumor xenograft; 15 min post injection): 9.9±1.7 %ID/g
- uptake in blood (A549 tumor xenograft; 30 min post injection): 2.0±0.2 %ID/g
- uptake in bone (A549 tumor xenograft; 30 min post injection): 2.3±0.6 %ID/g
- uptake in brain (A549 tumor xenograft; 30 min post injection): 0.9±0.2 %ID/g
- uptake in heart (A549 tumor xenograft; 30 min post injection): 3.5±1.0 %ID/g
- uptake in kidney (A549 tumor xenograft; 30 min post injection): 10±1.9 %ID/g
- uptake in liver (A549 tumor xenograft; 30 min post injection): 5.7±1.2 %ID/g
- uptake in lung (A549 tumor xenograft; 30 min post injection): 3.1±1.0 %ID/g
- uptake in muscle (A549 tumor xenograft; 30 min post injection): 2.0±0.6 %ID/g
- uptake in pancreas (A549 tumor xenograft; 30 min post injection): 43±11 %ID/g
- uptake in spleen (A549 tumor xenograft; 30 min post injection): 7.8±1.6 %ID/g
- uptake in tumor (A549 tumor xenograft; 30 min post injection): 7.5±1.9 %ID/g
- uptake in blood (A549 tumor xenograft; 60 min post injection): 1.3±0.1 %ID/g
- uptake in bone (A549 tumor xenograft; 60 min post injection): 2.0±0.6 %ID/g
- uptake in brain (A549 tumor xenograft; 60 min post injection): 1.1±0.3 %ID/g
- uptake in heart (A549 tumor xenograft; 60 min post injection): 3.5±0.9 %ID/g
- uptake in kidney (A549 tumor xenograft; 60 min post injection): 6.6±1.0 %ID/g
- uptake in liver (A549 tumor xenograft; 60 min post injection): 5.3±1.1 %ID/g
- uptake in lung (A549 tumor xenograft; 60 min post injection): 2.3±0.5 %ID/g
- uptake in muscle (A549 tumor xenograft; 60 min post injection): 1.8±0.2 %ID/g
- uptake in pancreas (A549 tumor xenograft; 60 min post injection): 28±6.3 %ID/g
- uptake in spleen (A549 tumor xenograft; 60 min post injection): 5.1±1.8 %ID/g
- uptake in tumor (A549 tumor xenograft; 60 min post injection): 7.7±1.9 %ID/g
- uptake in blood (A549 tumor xenograft; 120 min post injection): 1.3±0.9 %ID/g
- uptake in bone (A549 tumor xenograft; 120 min post injection): 2.2±1.1 %ID/g
- uptake in brain (A549 tumor xenograft; 120 min post injection): 1.8±0.9 %ID/g
- uptake in heart (A549 tumor xenograft; 120 min post injection): 3.9±1.5 %ID/g
- uptake in kidney (A549 tumor xenograft; 120 min post injection): 5.5±3.1 %ID/g
- uptake in liver (A549 tumor xenograft; 120 min post injection): 7.1±2.4 %ID/g
- uptake in lung (A549 tumor xenograft; 120 min post injection): 1.9±0.6 %ID/g
- uptake in muscle (A549 tumor xenograft; 120 min post injection): 2.3±1.2 %ID/g
- uptake in pancreas (A549 tumor xenograft; 120 min post injection): 20±7.1 %ID/g
- uptake in spleen (A549 tumor xenograft; 120 min post injection): 4.9±3.1 %ID/g
- uptake in tumor (A549 tumor xenograft; 120 min post injection): 8.8±4.8 %ID/g
- ratio of tumor to muscle [1]: above 2.5
- uptake in bone (SKOV3 tumor xenograft; 15 min post injection): 2.6±1.0 %ID/g
- uptake in brain (SKOV3 tumor xenograft; 15 min post injection): 0.7±0.4 %ID/g
- uptake in heart (SKOV3 tumor xenograft; 15 min post injection): 4.0±2.1 %ID/g
- uptake in kidney (SKOV3 tumor xenograft; 15 min post injection): 17±4.5 %ID/g
- uptake in liver (SKOV3 tumor xenograft; 15 min post injection): 4.6±2.5 %ID/g
- uptake in lung (SKOV3 tumor xenograft; 15 min post injection): 3.9±1.3 %ID/g
- uptake in muscle (SKOV3 tumor xenograft; 15 min post injection): 2.3±1.1 %ID/g
- uptake in pancreas (SKOV3 tumor xenograft; 15 min post injection): 38±18 %ID/g
- uptake in spleen (SKOV3 tumor xenograft; 15 min post injection): 8.7±3.4 %ID/g
- uptake in tumor (SKOV3 tumor xenograft; 15 min post injection): 10±4.8 %ID/g
- uptake in blood (SKOV3 tumor xenograft; 30 min post injection): 2.7±0.3 %ID/g
- uptake in bone (SKOV3 tumor xenograft; 30 min post injection): 2.8±0.7 %ID/g
- uptake in brain (SKOV3 tumor xenograft; 30 min post injection): 1.0±0.04 %ID/g
- uptake in heart (SKOV3 tumor xenograft; 30 min post injection): 4.9±0.1 %ID/g
- uptake in kidney (SKOV3 tumor xenograft; 30 min post injection): 14±2.6 %ID/g
- uptake in liver (SKOV3 tumor xenograft; 30 min post injection): 5.0±0.7 %ID/g
- uptake in lung (SKOV3 tumor xenograft; 30 min post injection): 3.1±0.3 %ID/g
- uptake in muscle (SKOV3 tumor xenograft; 30 min post injection): 2.8±0.3 %ID/g
- uptake in pancreas (SKOV3 tumor xenograft; 30 min post injection): 41±7.4 %ID/g
- uptake in spleen (SKOV3 tumor xenograft; 30 min post injection): 13±3.6 %ID/g
- uptake in tumor (SKOV3 tumor xenograft; 30 min post injection): 14±1.1 %ID/g
- uptake in blood (SKOV3 tumor xenograft; 60 min post injection): 2.1±0.1 %ID/g
- uptake in bone (SKOV3 tumor xenograft; 60 min post injection): 2.3±0.3 %ID/g
- uptake in brain (SKOV3 tumor xenograft; 60 min post injection): 1.0±0.3 %ID/g
- uptake in heart (SKOV3 tumor xenograft; 60 min post injection): 4.9±1.1 %ID/g
- uptake in kidney (SKOV3 tumor xenograft; 60 min post injection): 10±0.8 %ID/g
- uptake in liver (SKOV3 tumor xenograft; 60 min post injection): 4.5±0.3 %ID/g
- uptake in lung (SKOV3 tumor xenograft; 60 min post injection): 2.5±0.3 %ID/g
- uptake in muscle (SKOV3 tumor xenograft; 60 min post injection): 2.6±0.6 %ID/g
- uptake in pancreas (SKOV3 tumor xenograft; 60 min post injection): 34±4.7 %ID/g
- uptake in spleen (SKOV3 tumor xenograft; 60 min post injection): 6.8±1.0 %ID/g
- uptake in tumor (SKOV3 tumor xenograft; 60 min post injection): 9.0±2.2 %ID/g
- uptake in blood (SKOV3 tumor xenograft; 120 min post injection): 1.5±0.2 %ID/g
- uptake in bone (SKOV3 tumor xenograft; 120 min post injection): 1.9±0.4 %ID/g
- uptake in brain (SKOV3 tumor xenograft; 120 min post injection): 1.2±0.2 %ID/g
- uptake in heart (SKOV3 tumor xenograft; 120 min post injection): 3.6±0.6 %ID/g
- uptake in kidney (SKOV3 tumor xenograft; 120 min post injection): 7.0±0.8 %ID/g
- uptake in liver (SKOV3 tumor xenograft; 120 min post injection): 2.7±0.5 %ID/g
- uptake in lung (SKOV3 tumor xenograft; 120 min post injection): 1.8±0.3 %ID/g
- uptake in muscle (SKOV3 tumor xenograft; 120 min post injection): 2.0±0.4 %ID/g
- uptake in pancreas (SKOV3 tumor xenograft; 120 min post injection): 19±2.4 %ID/g
- uptake in spleen (SKOV3 tumor xenograft; 120 min post injection): 4.5±1.1 %ID/g
- uptake in tumor (SKOV3 tumor xenograft; 120 min post injection): 6.2±0.5 %ID/g
- inhibition of uptake by BCH ([2]; 10 mM BCH, relative to control, most cell lines): 36-68%
- inhibition of uptake by MeAIB ([2]; 10 mM MeAIB, relative to control, most cell lines): 10-32%
- uptake in tumor cells ([2]; 30 minutes incubation, without inhibitors, range over the cell lines): 5-9 %ID/5×10^5 cells
- amino acid transport system mediating uptake / selectivity ([2]; AAT cell inhibition assays with MeAIB and BCH): mixed AATs, likely but not limited to system A and system L
